Data as given in patent US10053416B1, “Process for producing long chain amino acids and dibasic acids” (VITAWORKS IP, LLC, priority 2017, dated 2018).
Where a name gives a salt, the structure may show the parent alone.

Columns and labels:
[1] = Solubility / phase separation observation in water and aqueous salt solutions; assay type: physicochemical
Protocol: If there are long chain fatty acids present in the starting material, these fatty acids are precipitated as the ammonium salt, along with the long chain amino acid. In the production of 11-aminoundecanoic acid and dodecanedioic acid from the starting material of castor oil, significant amount of stearic acid is present in the mixed amide derivatives. […] If ammonia or ammonium hydroxide is used as the basic agent to neutralize sulfuric acid, and after more basic agent is added to the mother liquor to a basic pH, alkylamine can only be recovered by extraction. Distillation of the basic solution will remove ammonia instead of alkylamine. […] No phase separation is observed between hexylamine and a solution of ammonium sulfate.

[2] = Solubility curve in 5% aqueous solution of ammonium hydroxide (FIG. 4); assay type: physicochemical; conditions: as a function of temperature (FIG. 4)
Text: FIG. 4. Solubility curve of 11-aminoundecanoic acid and dodecanedioic acid in 5% aqueous solution of ammonium hydroxide.
In one embodiment of the present invention, schematically illustrated in FIG. 1, the solution or suspension is further cooled to crystallize the long chain amino acid, which can be recovered by means of solid-liquid separation to provide a mother liquor containing the ammonium or alkylamine salts of long chain dibasic acid and alkanoic acid. […] The three components in the mother liquor, i.e., alkylamine, dodecanedioic acid, and alkanoic acid, can be separated according to one of the following three methods.

Row | SMILES | Solubility ([1]; in a solution of alkali salt) | Solubility ([1]; in a solution of ammonium salt, i.e., ammonium sulfate) | Solubility ([1]; in water) | Solubility [2]
1 | CCCCCCN [hexylamine] | insoluble | freely soluble | insoluble | –
2 | O=C(O)CCCCCCCCCCC(=O)O [ammonium salt of dodecanedioic acid, dodecanedioic acid] | – | – | – | soluble and becomes more soluble as temperature increases
3 | NCCCCCCCCCCC(=O)O [11-aminoundecanoic acid] | – | – | – | nearly insoluble
